This is an account of results in patent US4548938A, “5-H-1,3,4-thiadiazolo[3,2-a]pyrimidin-5-one compounds” (Janssen Pharmaceutica N.V., priority 1985, dated 1985).

Molecules are shown by their SMILES. Where a name gives a salt, the structure may show the parent alone. Read-outs that look alike come from different tables or passages of the source.

Test [1] deals with compound 48/80-induced gastric lesions. The settings on record: rats treated with compound 48/80; known serotonin antagonists; cited from earlier work.
Test [2] relates to apomorphine-induced phenomena: agitation and stereotypic chewing. The test can be described thus: apomorphine (APO) test in rats, part of the combined APO-TRY-NOR test. It counts as in vivo, male Wistar rats. As to conditions: Rattus norvegicus, sc, 0.5 h, read-out: ED50 (APO)-rat.
In test [3] the test system is tryptamine-induced bilateral tonic seizures. The test can be described thus: tryptamine (TRY) test in rats, part of the combined APO-TRY-NOR test. As to conditions: Rattus norvegicus, sc, 1.5 h, tryptamine 40 mg/kg i.v. at 90 min. The format is in vivo, male Wistar rats.
Test [4] relates to norepinephrine-induced mortality. Briefly: norepinephrine (NOR) test in rats, part of the combined APO-TRY-NOR test. The format is in vivo, male Wistar rats. The settings on record: Rattus norvegicus, sc, 2 h, norepinephrine 1.25 mg/kg i.v. at 120 min. Here is the method:
THE COMBINED APOMORPHINE (APO)-, TRYPTAMINE (TRY)- AND NOREPINEPHRINE (NOR) TEST IN RATS
The experimental animals used in this test were adult male Wistar rats (weight 240±10 g). After an overnight fast, the animals were treated subcutaneously (1 ml/100 g) with an aqueous solution of the compound under investigation (time=zero) and put in isolated observation cages. […] At the end of this 1 hour period (time=90 minutes) the same animals were injected intravenously with 40 mg/kg of tryptamine (TRY) and the presence of the typical tryptamine-induced bilateral tonic seizures was noted. Two hours after pretreatment (time=120 minutes) finally, the same animals were challenged with 1.25 mg/kg intravenously of norepinephrine (NOR) and possible mortality was looked for up to 60 minutes later.
The table 1 gives the ED50 -values of a number of the compounds under consideration. As used herein, the ED50 -value represents the dose which protects 50% of the animals from apomorphine-, tryptamine- or norepinephrine-induced phenomena.

Test [5] relates to apomorphine-induced emesis. The test can be described thus: apomorphine test in dogs (APO-dog). It counts as in vivo. The settings on record: Canis lupus familiaris, sc; beagle dogs; apomorphine 0.31 mg/kg s.c. 1 hour after compound; protection from emesis.
Test [6] relates to compound 48/80-induced gastric lesions. The test can be described thus: gastric lesion test: lesions induced by compound 48/80. The format is in vivo. The settings on record: Rattus norvegicus, read-out: gastric lesion test ED50.
Test [7] concerns serotonin-induced contraction of rat caudal artery. The test can be described thus: antagonistic activity on the effect of serotonin on the caudal artery of the rat. As to conditions: serotonin 40 ng/ml; minimal concentration reducing contraction amplitude to at least 50% of normal; 5 min. Here is the method: ANTAGONISTIC ACTIVITY ON THE EFFECT OF SEROTONIN ON THE CAUDAL ARTERY OF THE RAT
Caudal arteries from fasted male rats (210-235 g) were used in the test. Two helical strips having a length of 5-6 cm and a width of 2 mm. were obtained from each artery and mounted vertically in a 100 ml organ bath containing an oxygenated Krebs-Henseleit solution. Submaximal contractions of the arterial strips were produced by adding single doses of serotonin (40 ng/ml) to the organ bath for 2 minutes with each time an interval of 10 minutes. The amplitude of the contraction was measured before and 5 minutes after adding the drug. After washing out, the agonist was added again three times in order to see whether the contraction was restored and normalized.

For test [8], the system named is compound 48/80-induced lethality. Briefly: protection of rats from compound 48/80-induced lethality. The format is in vivo, male Wistar rats. The settings on record: Rattus norvegicus, sc, 4 h, s.c., compound 48/80 0.5 mg/kg i.v. 1 hour after treatment, 50% protected against lethality, read-out: 48/80-test ED50. An excerpt:
PROTECTION OF RATS FROM COMPOUND 48/80-INDUCED LETHALITY
Compound 48/80, a mixture of oligomers obtained by condensation of 4-methoxy-N-methyl-phenethylamine and formaldehyde has been described as a potent histamine releasing agent (Int. Arch. Allergy, 13, 336 (1958)). The protection from compound 48/80-induced lethal circulatory collapse appears to be a simple way of evaluating quantitatively the antihistaminic activity of test-compounds. Male rats of an inbred Wistar strain, weighing 240-260 g were used in the experiment. After overnight starvation the rats were transferred to conditioned laboratories (temp.=21±1° C., relative humidity=65±5%). The rats were treated subcutaneously or orally with a test compound or with the solvent (NaCl solution, 0.9%). One hour after treatment there was injected intravenously compound 48/80, freshly dissolved in water, at a dose of 0.5 mg/kg (0.2 ml/100 g of body weight). In control experiments, wherein 250 solvent-treated animals were injected with the standard dose of compound 48/80 not more than 2.8% of the animals survived after 4 hours, is therefore considered to be a safe criterion of a protective effect of drug administration.
In this connection the ED50 -values are the minimal doses of the concerned compounds, administered in the subcutaneous way, whereby 50% of the rats are protected against compound 48/80-induced lethality.

The mark [9] stands for this setting: s.c., rats, apomorphine 1.25 mg/kg i.v. 30 min after compound.
The mark [10] stands for this setting: rats, compound 48/80, distension of the stomach completely absent in 50% of rats.

`CN1CCC(=C2c3ccccc3C=Cc3ccccc32)CC1` [cyproheptadine]: the “prevention of cyanosis of ears and extremities, lesions in the glandular area of the stomach and abnormal gastric distension” value (“prevention” below) in test [1] is listed as “prevent completely”.
In the case of `CN1CCC(=C2c3ccccc3CCc3sccc32)CC1` [pizotifen], the “prevention” value in test [1] is listed as “prevent completely”.
`CN1C[C@H](CNC(=O)OCc2ccccc2)C[C@@H]2c3cccc4c3c(cn4C)C[C@H]21` [metergoline]: the “prevention” value in test [1] is reported as “prevent completely”.
For `Cc1nc2sc3c(n2c(=O)c1CCN1CCC(c2c[nH]c4ccccc24)CC1)CCC3` [compound 17, 7,8-dihydro-3-[2-[4-(1H-indol-3-yl)-1-piperidinyl]ethyl]-2-methyl-4H,6H-cyclopenta[4,5]thiazolo[3,2-a]-pyrimidin-4-one], the ED50 was determined as 0.63 mg/kg in test [2] (setting [9]); 0.16 mg/kg in test [3]; 0.31 mg/kg in test [4]; 0.03 mg/kg in test [5]; 0.31 mg/kg in test [6] (setting [10]); 0.08 mg/kg in test [8]. Moreover, the “caudal artery rat ED50” value in test [7] was 0.31 ng/mL.
For the compound `Cc1nc2sc3c(n2c(=O)c1CCN1CCC(C(=O)c2ccc(F)cc2)CC1)CCC3` [compound 8, 3-[2-[4-(4-fluorobenzoyl)-1-piperidinyl]ethyl]7,8-dihydro-2-methyl-4H,6H-cyclopenta[4,5]thiazolo[3,2-a]pyrimidin-4-one], the ED50 is 1.25 mg/kg in test [2]; 0.31 mg/kg in test [3]; 0.63 mg/kg in test [4]; 0.25 mg/kg in test [5]; 0.04 mg/kg in test [6]; 0.31 mg/kg in test [8]. In addition, the “caudal artery rat ED50” value in test [7] came out at 0.32 ng/mL.
As to `CN1CCN2c3ccccc3Cc3ccccc3C2C1` (stereo not drawn) [mianserin], the “prevention” value in test [1] is recorded as “prevent completely”.
On to `Cc1nc2n(c(=O)c1CCN1CCC(C(=O)c3ccc(F)cc3)CC1)CCS2` [compound 1, 6-[2-[4-(4-fluorobenzoyl)-1-piperidinyl]ethyl]-2,3-dihydro-7-methyl-5H-thiazolo[3,2-a]pyrimidin-5-one], for which the ED50 in test [2] (setting [9]) turned out to be 0.31 mg/kg; in test [3], 0.16 mg/kg; in test [4], 0.63 mg/kg; in test [5] it was 0.03 mg/kg; in test [6] (setting [10]) it was 0.0005 mg/kg; in test [8], 0.63 mg/kg. In addition, in test [7], the “caudal artery rat ED50” value was found to be 0.32 ng/mL.
Consider `Cc1nc2sccn2c(=O)c1CCN1CCC(C)(C(=O)c2ccc(F)cc2)CC1` [compound 9, monohydrochloride], for which the ED50 in test [2] was 0.63 mg/kg; in test [3] it was 0.16 mg/kg; in test [4], 1.25 mg/kg; in test [5] it was 0.25 mg/kg; in test [6] (setting [10]), 0.005 mg/kg; in test [8], 0.16 mg/kg. Besides, the “caudal artery rat ED50” value in test [7] worked out at 0.32 ng/mL.
As to `CN(C)CCCSc1ccccc1NC(=O)/C=C/c1ccccc1` [cinanserin], the “prevention” value in test [1] is given as “prevent completely”.
As to `CC[C@@H](CO)NC(=O)[C@@H]1C=C2c3cccc4c3c(cn4C)C[C@H]2N(C)C1` [methysergide], the “prevention” value in test [1] was “prevent completely”.
`NC(=O)C1(N2CCCCC2)CCN(CCCC(=O)c2ccc(F)cc2)CC1` [pipamperone]: the “prevention” value in test [1] is “prevent completely”.
In the case of `O=C(CCCN1CCC2(CC1)C(=O)NCN2c1ccccc1)c1ccc(F)cc1` [spiperone], the “prevention” value in test [1] is given as “prevent completely”.
`Cc1nc2n(c(=O)c1CCN1CCC(c3c[nH]c4ccccc34)CC1)CCCS2` [compound 3, 3,4-dihydro-7-[2-[4-(1H-indol-3-yl)-1-piperidinyl]ethyl]-8-methyl-2H,6H-pyrimido[2,1-b][1,3]thiazin-6-one]: the ED50 in test [2] amounted to 0.63 mg/kg; in test [3] it was 0.63 mg/kg; in test [4] it was 1.25 mg/kg; in test [5], 0.015 mg/kg; in test [6] (setting [10]), 0.02 mg/kg; in test [8], 0.04 mg/kg. Also, in test [7], the “caudal artery rat ED50” value worked out at 0.32 ng/mL.
On to `Cc1nc2sc3ccccc3n2c(=O)c1CCN1CCC(C(=O)c2ccc(F)cc2)CC1` [compound 6, 3-[2-[4-(4-fluorobenzoyl)-1-piperidinyl]ethyl]-2-methyl-4H-pyrimido[2,1-b]benzothiazol-4-one], for which the ED50 came out at 5 mg/kg in test [2] (setting [9]); 0.02 mg/kg in test [3]; 0.31 mg/kg in test [4]; 1.8 mg/kg in test [5]; 0.08 mg/kg in test [6]; 0.16 mg/kg in test [8]. Moreover, the “caudal artery rat ED50” value in test [7] worked out at 0.14 ng/mL.
Take `Cc1nc2sccn2c(=O)c1CCN1CCC(c2c[nH]c3ccc(F)cc23)CC1` [compound 22, 6-[2-[4-(5-fluoro-1H-indol-3-yl)-1-piperidinyl]ethyl]-7-methyl-5H-thiazolo[3,2-a]pyrimidin-5-one]: the ED50 in test [2] stood at 1.25 mg/kg; in test [3], 0.31 mg/kg; in test [4], 1.25 mg/kg; in test [5], 0.12 mg/kg; in test [6] (setting [10]) it was 0.08 mg/kg; in test [8], 1.25 mg/kg. For the same compound, the “caudal artery rat ED50” value in test [7] amounted to 1.25 ng/mL.
